pIC50: −log10 of the molar value.
Key:
Assay type in all cases: biochemical
human NAAA = target: T1, human NAAA (Homo sapiens, UniProt Q02083); test: Fluorogenic h-NAAA assay; conditions: for inhibition at […]: @ 2.5 μM, read-out: h-NAAA Fluorogenic assay % inhib.
T1 construct: made in house; host or cells: HEK293 cells, stably transfected; soluble lysosomal fraction used as enzyme source
T1 sequence (Q02083 29-359): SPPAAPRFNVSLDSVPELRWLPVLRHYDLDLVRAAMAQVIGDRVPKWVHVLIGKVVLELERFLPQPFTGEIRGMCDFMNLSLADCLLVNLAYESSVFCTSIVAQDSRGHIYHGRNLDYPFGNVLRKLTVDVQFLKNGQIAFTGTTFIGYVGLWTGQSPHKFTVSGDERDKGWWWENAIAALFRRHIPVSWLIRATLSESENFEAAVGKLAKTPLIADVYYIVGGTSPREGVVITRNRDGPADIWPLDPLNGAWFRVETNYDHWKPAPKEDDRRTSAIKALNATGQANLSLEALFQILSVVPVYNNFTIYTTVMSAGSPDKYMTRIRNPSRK
Procedure: Hek293 cells stably transfected with the human NAAA coding sequence cloned from a human spleen cDNA library were used as enzyme source. Recombinant HEK-hNAAA pellets were resuspended in homogenizing buffer, and sonicated. Samples were centrifuged at 800×g for 15 min at 4° C. and the resultant supernatants were then ultracentrifuged at 12,000×g for 30 min at 4° C. The pellets were resuspended in PBS pH 7.4 on ice and subjected to a freeze/thaw cycle at −80° C. The suspension was finally centrifuged at 105,000×g for 1 h at 4° C. Protein concentration was measured and samples aliquoted and stored at −80° C. until use.
The assay was run in Optiplate 96-wells black plates, in a total reaction volume of 200 μL. NAAA protein preparation (4.0 μg) was pre-incubated for 10 min with various concentrations of test compounds or vehicle control (5% DMSO) in 100 mM citrate/phosphate buffer (pH 4.5) containing 3.0 mM DTT, 0.1% Triton X-100, 0.05% BSA, 150 mM NaCl. N-(4-methyl-2-oxo-chromen-7-yl)-hexadecanamide was used as a substrate (5.0 μM) and the reaction carried over for 30 min at 37° C. The samples were then read in a Perkin Elmer Envision plate reader using an excitation wavelength of 360 nm and emission 460 nm. IC50 values were calculated by non-linear regression analysis of log [concentration]/inhibition curves using GraphPad Prism 5 (GraphPad Software Inc., CA—USA) applying a standard slope curve fitting.

r-NAAA = target: T2, r-NAAA (Rattus norvegicus, UniProt Q5KTC7); test: UPLC/MS r-NAAA assay
T2 construct: Lysosomal NAAA protein preparation was obtained by homogenizing male Sprague-Dawley rat lungs; tissue Charles River (animals); host or cells: male Sprague-Dawley rat lung, soluble lysosomal fraction
T2 sequence (Q5KTC7 34-362): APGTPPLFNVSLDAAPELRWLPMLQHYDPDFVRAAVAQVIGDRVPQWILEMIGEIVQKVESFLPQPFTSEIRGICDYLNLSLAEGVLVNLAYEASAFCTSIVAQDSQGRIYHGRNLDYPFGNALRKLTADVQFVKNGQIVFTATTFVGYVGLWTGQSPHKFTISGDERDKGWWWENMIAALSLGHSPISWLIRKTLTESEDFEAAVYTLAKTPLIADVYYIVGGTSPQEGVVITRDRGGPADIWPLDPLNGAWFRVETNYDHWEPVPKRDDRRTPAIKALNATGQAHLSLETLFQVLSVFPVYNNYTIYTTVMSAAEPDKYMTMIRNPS
Procedure: Lysosomal NAAA protein preparation was obtained by homogenizing male Sprague-Dawley rat lungs (Charles River) in 20 mM Tris-HCl buffer pH 7.4 containing 0.32M sucrose. […] Supernatants were then centrifuged at 12,000 xg for 30 min at 4° C. Pellets were then resuspended in PBS pH 7.4 and subjected to a freeze/thaw cycle at −80° C. The suspension was finally centrifuged at 105,000×g for 1 h at 4° C. The supernatant was then used in the enzymatic assay.
NAAA protein preparation was pre-incubated with various concentrations of test compounds or vehicle control in 100 mM NaH2PO4/Citrate buffer, 1% Triton-X, 3 mM DTT (pH 4.5) for 30 min at 37° C. Samples were then incubated with heptadecenoylethanolamide (50 μM, Avanti Polar Lipids) at 37° C. for 30 min. The reaction was terminated by addition of cold methanol containing heptadecanoic acid (NuCheck Prep) as internal standard. Samples were then analyzed by UPLC/MS (Acquity, Waters). […] The column temperature was 40° C. Electrospray ionization was in the negative mode, capillary voltage was 0.5 kV, cone voltage was […], desolvation temperature was 500° C. N2 was used as drying gas at a flow rate of 1000 L/hour and a temperature of 500° C. […] Calibration curves were generated using commercial heptadecenoic acid (NuCheck Prep) Inhibition of NAAA activity was calculated as reduction of heptadecenoic acid in the samples compared to vehicle controls. IC50 values were calculated by non-linear regression analysis of log [concentration]/inhibition curves using GraphPad Prism 5 (GraphPad Software Inc., CA—USA) applying a standard slope curve fitting.

Rat AC (r-AC) = target: T3, Rat AC (r-AC) (Rattus norvegicus, UniProt Q6P7S1); test: Rat AC (r-AC) assay; conditions: @ 1 μM; read-out: r-AC UPLC/MS assay % inhib.
T3 construct: V5 (C); His (C); made in house; host or cells: HEK293 cells transfected with pEF6-rAC-V5/His, G418 selected; soluble lysosomal fraction
T3 sequence (Q6P7S1 21-394): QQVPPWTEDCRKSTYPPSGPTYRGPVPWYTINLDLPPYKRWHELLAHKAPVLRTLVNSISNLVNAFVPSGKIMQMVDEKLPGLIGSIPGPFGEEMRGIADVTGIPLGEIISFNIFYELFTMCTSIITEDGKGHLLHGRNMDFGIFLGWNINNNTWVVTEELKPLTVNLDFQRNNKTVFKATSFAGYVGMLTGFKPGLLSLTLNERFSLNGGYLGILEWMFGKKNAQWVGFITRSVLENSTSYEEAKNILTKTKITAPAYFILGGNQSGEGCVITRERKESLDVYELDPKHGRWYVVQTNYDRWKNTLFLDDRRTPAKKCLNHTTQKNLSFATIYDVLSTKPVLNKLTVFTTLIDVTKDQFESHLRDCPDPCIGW
Procedure: The selectivity of selected compounds versus Acid Ceramidase (AC) was determined.
Rat AC (r-AC) was cloned from a brain cDNA library using primers based on the sequence obtained from the National Center for Biotechnology Information (NCBI) database: 5′rAC (5′-[…]-3′) (SEQ ID NO:1) and 3′rAC (5′-[…]-3′) (SEQ ID NO:2). The PCR (High Fidelity PCR Master, Roche) product was subcloned into a pEF6-V5/His vector (Invitrogen) to construct a mammalian expression vector encoding V5/His-tagged rat AC. HEK293 cells were transfected with pEF6-rAC-V5/His using Super-Fect reagent (Qiagen) and screened with G418 (0.3 mg/mL). Cells were suspended in 20 mM Tris HCl (pH 7.5) containing 0.32M sucrose, sonicated and centrifuged at 800×g for 15 minutes at 4° C. The supernatants were centrifuged again at 12,000×g for 30 minutes at 4° C. The pellets were suspended in phosphate-buffered saline (PBS) and subjected to 2 freeze-thaw cycles at −80° C. The suspensions were centrifuged at 105,000×g for 1 hour at 4° C. The supernatants containing recombinant AC were kept at −80° C. until use. Protein concentration was measured using the bicinchoninic acid (BCA) assay (Pierce). Recombinant rat AC (50 μg) was preincubated with inhibitors (final DMSO concentration 1%) in assay buffer (100 mM sodium phosphate, 0.1% Nonidet P-40, 150 mM NaCl, 3 mM DTT, 100 mM sodium citrate, pH 4.5) for 30 minutes at 37° C. Reactions were started by the addition of 100 μM N-lauroyl ceramide (Nu-Chek Prep, Elysian, Minn.) and carried on for 30 minutes at 37° C. Reactions were stopped by addition of a mixture of chloroform/methanol (2:1, vol/vol) containing 1 nmol of heptadecanoic acid (HDA; NuChek Prep). The organic phases were collected, dried under N2, and analyzed by LC-MS in the negative-ion mode using […] (HDA) as internal standard (m/z=199 for lauric acid, m/z=269 for HDA). […]. The column temperature was 50° C. Electrospray ionization (ESI) was in the negative mode, capillary voltage as 4 kV, and fragmentor voltage was 100 V. N2 was used as drying gas at a flow rate of 13 L/min and a temperature of 350° C. Nebulizer pressure was set at 60 psi. We monitored [M-H]− in the selected-ion monitoring (SIM) mode using HDA as internal standard. Calibration curves were generated using commercial lauric acid (Nu-Chek Prep; m/z=199).

SMILES | pIC50 (human NAAA) | pIC50 (r-NAAA) | inhibition at 1 µM (Rat AC (r-AC)) [%] | inhibition at […] (human NAAA) [%]
CCCCC1CCC(OC(=O)N[C@H]2CNC2=O)CC1 (mixture of isomers) [Example 61, (1s,4R) and (1r,4S)-(4-Butylcyclohexyl)-N-[(3S)-2-oxoazetidin-3-yl]-carbamate] | 6.49 | 6.15 |  | 
COc1ccc(CCCCOC(=O)N[C@H]2CNC2=O)cc1 [Example 22, 4-(4-Methoxyphenyl)-butyl-N-[(3S)-2-oxoazetidin-3-yl]-carbamate] | 6.24 | 6.10 |  | 
O=C(N[C@H]1CNC1=O)OCc1ccc(C2CC3CCC2C3)cc1 (mixture of isomers) [Example 56, [4-(1R,2R,4S)- and (1S,2S,4R)-Norbornan-2-yl-phenyl)]-methyl-N-[(3S)-2-oxoazetidin-3-yl]-carbamate] | 7.41 | 7.80 |  | 
CCCCCCCOC(=O)N[C@H]1CNC1=O [Example 1, Heptyl-N-[(3S)-2-oxoazetidin-3-yl]-carbamate] |  | 6.15 | 37 | 
CCCCCCCCCOC(=O)N[C@H]1CNC1=O [Example 25, Nonyl-N-[(3S)-2-oxoazetidin-3-yl]-carbamate] | 7.77 | 7.40 |  | 
CCCCC/C=C/CCOC(=O)N[C@H]1CNC1=O [Example 9, [(E)-Non-3-enyl]-N-[(3S)-2-oxoazetidin-3-yl]-carbamate] | 7.11 | 6.74 |  | 
CCCCCCCCCCOC(=O)N[C@H]1CNC1=O [Example 30, Decyl-N-[(3S)-2-oxoazetidin-3-yl]-carbamate] | 7.60 | 7.26 |  | 
O=C(N[C@H]1CNC1=O)OCCCCc1ccccc1 [Example 13, 4-Phenylbutyl-N-[(3S)-2-oxoazetidin-3-yl]-carbamate] | 6.03 | 5.61 |  | 
CCCCC/C=C\CCOC(=O)N[C@H]1CNC1=O [Example 10, [(Z)-Non-3-enyl]-N-[(3S)-2-oxoazetidin-3-yl]-carbamate] | 7.12 | 6.60 |  | 
O=C(N[C@H]1CNC1=O)OCc1ccc(C(=O)c2ccccc2)cc1 [Example 52, (4-Benzoylphenyl)-methyl-N-[(3S)-2-oxoazetidin-3-yl]-carbamate] | 6.19 | 6.38 |  | 
O=C(N[C@H]1CNC1=O)OCCCC1CCCC1 [Example 21, 3-Cyclopentylpropyl-N-[(3S)-2-oxoazetidin-3-yl]-carbamate] | 7.01 | 6.66 |  | 
O=C(N[C@H]1CNC1=O)OCc1ccc(OC2CC3CCC2C3)cc1 (mixture of isomers) [Example 102, 4-[(1R,2R,4S)- and (1S,2S,4R)-Norbornan-2-yl]-oxyphenyl]-methyl-N-[(3S)-2-oxoazetidin-3-yl]-carbamate] |  |  |  | 95
O=C(N[C@H]1CNC1=O)OCC1CCC(F)(F)CC1 [Example 99, (4,4-Difluorocyclohexyl)-methyl-N-[(3S)-2-oxoazetidin-3-yl]-carbamate] |  |  |  | 35
CCCCOc1ccc(COC(=O)N[C@H]2CNC2=O)cc1 [Example 63, (4-Butoxyphenyl)-methyl-N-[(3S)-2-oxoazetidin-3-yl]-carbamate] | 6.98 | 6.62 |  | 
O=C(N[C@H]1CNC1=O)OCCCc1ccccc1 [Example 27, 3-Phenylpropyl-N-[(3S)-2-oxoazetidin-3-yl]-carbamate] |  |  |  | 45
O=C(N[C@H]1CNC1=O)OCc1ccc(-c2nc3ccccc3o2)cc1 [Example 54, [4-(1,3-Benzoxazol-2-yl)-phenyl]-methyl-N-[(3S)-2-oxoazetidin-3-yl]-carbamate] | 6.17 |  |  | 
O=C(N[C@H]1CNC1=O)OCc1ccc(C23CC4CC(CC(C4)C2)C3)cc1 [Example 58, [4-(1-Adamantyl)-phenyl]-methyl-N-[(3S)-2-oxoazetidin-3-yl]-carbamate] | 5.68 | 5.57 |  | 
O=C(N[C@H]1CNC1=O)OCc1ccc(-c2ccccc2)c(F)c1 [Example 60, (3-Fluoro-4-phenyl-phenyl)-methyl-N-[(3S)-2-oxoazetidin-3-yl]-carbamate] | 6.63 |  |  | 
O=C(N[C@H]1CNC1=O)OCCCOC1CCCCC1 [Example 50, 3-(Cyclohexoxy)-propyl-N-[(3S)-2-oxoazetidin-3-yl]-carbamate] |  |  |  | 25
O=C(N[C@H]1CNC1=O)OCc1ccc(Cc2ccccc2)cc1 [Example 34, (4-Benzylphenyl)-methyl-N-[(3S)-2-oxoazetidin-3-yl]-carbamate] | 6.64 | 6.52 |  | 

Reference: patent US9828338B2, “Carbamate derivatives of lactam based N-acylethanolamine acid amidase (NAAA) inhibitors” (The Regents of the University of California, priority 2013, dated 2017)
